Reference: patent US20120115845A1, “THERAPEUTIC AGENTS” (priority 2007, published 2012)

Tests used:
human GHS receptor [1] = target: T1, human GHS receptor (Homo sapiens, UniProt Q92847); assay: h bind IC50 (binding assay, Table 1); conditions: human receptor; Table 1
human GHS receptor [2] = target: T1, human GHS receptor; assay: Ghrelin IP1 agonist assay (IP1 HTRF); type: cell-based; set-up: expressed in transfected cells; host or cells: HEK293s; conditions: for Emax: 2 h, agonist effect as % maximal effect of GHRP-6 (5 μM), read-out: h IP1 ag %; for EC50: HEK293s cells stably expressing human GHS receptor, 2 hours at 37° C., read-out: h IP1 ag EC50
Summary of the method: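 Cells: HEK293s stably expressing human GHS receptor, in stimulation buffer containing 0.02% fatty acid free BSA.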

T1 sequence (Q92847 whole entry): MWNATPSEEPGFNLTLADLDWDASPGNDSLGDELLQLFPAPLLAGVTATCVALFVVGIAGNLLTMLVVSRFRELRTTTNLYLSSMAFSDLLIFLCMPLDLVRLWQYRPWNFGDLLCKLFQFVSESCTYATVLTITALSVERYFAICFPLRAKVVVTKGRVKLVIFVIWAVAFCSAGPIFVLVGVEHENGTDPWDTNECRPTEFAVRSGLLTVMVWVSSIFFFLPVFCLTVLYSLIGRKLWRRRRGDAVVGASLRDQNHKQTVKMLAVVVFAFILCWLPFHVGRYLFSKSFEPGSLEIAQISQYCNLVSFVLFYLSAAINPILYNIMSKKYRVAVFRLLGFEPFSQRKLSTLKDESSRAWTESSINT

SMILES	IC50 (human GHS receptor [1]) [nM]	Emax (human GHS receptor [2]) [%]	EC50 (human GHS receptor [2]) [nM]
CC(C)N1CCC[C@H](COc2ccc(Cl)c(C(=O)NC(=O)Nc3nc4ccc(S(C)(=O)=O)cc4s3)c2)C1 [Example 228, (S)-2-chloro-5-((1-isopropylpiperidin-3-yl)methoxy)-N-(6-(methylsulfonyl)benzo[d]thiazol-2-ylcarbamoyl)benzamide]	1240	9.89	1370
Cc1ccc(F)c(C(=O)NC(=O)Nc2nc3ccc(S(C)(=O)=O)cc3s2)c1Cl [Example 194, 2-Chloro-6-fluoro-3-methyl-N-[(6-methylsulfonylbenzothiazol-2-yl)carbamoyl]benzamide]	172	39.4	9.52
CCN(CC)C1CCN(c2ccc(Cl)c(C(=O)NC(=O)Nc3nc4ccc(S(C)(=O)=O)cc4s3)c2)C1 (centres unmarked) [Example 239, 2-chloro-5-(3-(diethylamino)pyrrolidin-1-yl)-N-(6-(methylsulfonyl)benzo[d]thiazol-2-ylcarbamoyl) benzamide]	150	0	≥ 20000
CCN1CCC[C@@H]1CS(=O)(=O)c1ccc2nc(NC(=O)NC(=O)c3ccccc3Cl)sc2c1 [Example 164, 2-Chloro-N-[[6-[[(2R)-1-ethylpyrrolidin-2-yl]methylsulfonyl]benzothiazol-2-yl]carbamoyl]benzamide]	174	43.9	70.2
CS(=O)(=O)c1ccc2nc(NC(=O)NC(=O)c3ccccc3C(F)(F)F)sc2c1 [Example 170, N-[(6-Methylsulfonylbenzothiazol-2-yl)carbamoyl]-2-(trifluoromethyl)benzamide]	831	9.73	75.7
CC(C)OCCNCCS(=O)(=O)c1ccc2nc(NC(=O)NC(=O)c3ccccc3Cl)sc2c1 [Example 38, 2-Chloro-N-[[6-[2-(2-propan-2-yloxyethylamino)ethylsulfonyl]benzothiazol-2-yl]carbamoyl]benzamide]	179	40	14.7
CS(=O)(=O)c1ccc2nc(NC(=O)NC(=O)c3ccccc3[N+](=O)[O-])sc2c1 [Example 104, N-[(6-Methylsulfonylbenzothiazol-2-yl)carbamoyl]-2-nitro-benzamide]	742	15.1	772
CS(=O)(=O)c1ccc2nc(NC(=O)NC(=O)c3ccccc3Br)sc2c1 [Example 103, 2-Bromo-N-[(6-methylsulfonylbenzothiazol-2-yl)carbamoyl]benzamide]	239	20.5	454
CC(C)N1CCCC(S(=O)(=O)c2ccc3nc(NC(=O)NC(=O)c4ccccc4Cl)sc3c2)C1 (centres unmarked) [Example 140, 2-Chloro-N-[[6-[(1-propan-2-yl-3-piperidyl)sulfonyl]benzothiazol-2-yl]carbamoyl]benzamide]	289	42.5	62
CS(=O)(=O)c1ccc2nc(NC(=O)NC(=O)c3c(F)cccc3Cl)sc2c1 [Example 106, 2-Chloro-6-fluoro-N-[(6-methylsulfonylbenzothiazol-2-yl)carbamoyl]benzamide]	216	12.9	32.8
CS(=O)(=O)c1ccc2nc(NC(=O)NC(=O)c3cc(-n4cncn4)ccc3Cl)sc2c1 [Example 67, 2-Chloro-N-(6-(methylsulfonyl)benzothiazol-2-ylcarbamoyl)-5-(1H-1,2,4-triazol-1-yl)benzamide]	536	0	> 20000
CC(C)NCCS(=O)(=O)c1ccc2nc(NC(=O)NC(=O)c3ccccc3Cl)sc2c1 [Example 10, 2-Chloro-N-[[6-[2-(propan-2-ylamino)ethylsulfonyl]benzothiazol-2-yl]carbamoyl]benzamide]	27.3	44.1	18.9

Further lines, results first:

IC50 (human GHS receptor [1]) [nM]	Emax (human GHS receptor [2]) [%]	EC50 (human GHS receptor [2]) [nM]	SMILES
52.7	33.4	30.9	O=C(NC(=O)c1ccccc1Cl)Nc1nc2ccc(S(=O)(=O)CCCN3CCS(=O)(=O)CC3)cc2s1 [Example 150, 2-Chloro-N-[[6-[3-(1,1-dioxo-1,4-thiazinan-4-yl)propylsulfonyl]benzothiazol-2-yl]carbamoyl]benzamide]
0.2	0.631	6560	CN1CCN(CCCS(=O)(=O)c2ccc3nc(NC(=O)NC(=O)c4cc(N5CCCC5)ccc4Cl)sc3c2)CC1 [Example 87, 2-Chloro-N-(6-(3-(4-methylpiperazin-1-yl)propylsulfonyl)benzothiazol-2-ylcarbamoyl)-5-(pyrrolidin-1-yl)benzamide]
29.6	0		COc1cc(Cl)c(C(=O)NC(=O)Nc2nc3ccc(S(=O)(=O)C4CCN(C)CC4)cc3s2)cc1-n1nccc1C [Example 265, 2-chloro-4-methoxy-5-(5-methyl-1H-pyrazol-1-yl)-N-(6-(1-methylpiperidin-4-ylsulfonyl)benzo [d]thiazol-2-ylcarbamoyl) benzamide]
128	15.5	75.2	Cc1nc(CS(=O)(=O)c2ccc3nc(NC(=O)NC(=O)c4ccccc4Cl)sc3c2)cs1 [Example 191, 2-Chloro-N-[[6-[(2-methyl-1,3-thiazol-4-yl)methylsulfonyl]benzothiazol-2-yl]carbamoyl]benzamide]
7.91	80.9	≥ 20000	COc1cc(Cl)c(C(=O)NC(=O)Nc2nc3ccc(S(=O)(=O)C4CCN(C)CC4)cc3s2)cc1N1CCOCC1 [Example 255, 2-chloro-4-methoxy-N-(6-(1-methylpiperidin-4-ylsulfonyl)benzo [d]thiazol-2-ylcarbamoyl)-5-morpholino-benzamide]
1.3	2.25	≥ 25000	O=C(NC(=O)c1cc(-n2cccc2)ccc1Cl)Nc1nc2ccc(S(=O)(=O)CCCN3CCNCC3)cc2s1 [Example 73, 2-Chloro-N-[[6-(3-piperazin-1-ylpropylsulfonyl)benzothiazol-2-yl]carbamoyl]-5-pyrrol-1-yl-benzamide]
22.7	19.6	≥ 20000	CN(C)[C@H]1CCN(c2ccc(Cl)c(C(=O)NC(=O)Nc3nc4ccc(S(C)(=O)=O)cc4s3)c2)C1 [Example 235, (S)-2-chloro-5-(3-(dimethylamino)pyrrolidin-1-yl)-N-(6-(methylsulfonyl)benzo[d]thiazol-2-ylcarbamoyl) benzamide]
114	22.8	32.9	Cc1ccc(Cl)c(C(=O)NC(=O)Nc2nc3ccc(S(C)(=O)=O)cc3s2)c1F [Example 195, 6-Chloro-2-fluoro-3-methyl-N-[(6-methylsulfonylbenzothiazol-2-yl)carbamoyl]benzamide]
2.2	51.5	2.26	CN1CCN(CCCCS(=O)(=O)c2ccc3nc(NC(=O)NC(=O)c4ccccc4Cl)sc3c2)CC1 [Example 210, 2-Chloro-N-[[6-[4-(4-methylpiperazin-1-yl)butylsulfonyl]benzothiazol-2-yl]carbamoyl]benzamide]
0.8	0.81	4220	O=C(NC(=O)c1cc(-n2cccc2)ccc1Cl)Nc1nc2ccc(S(=O)(=O)[C@@H]3CCNC3)cc2s1 [Example 78, 2-Chloro-N-[[6-[(3R)-pyrrolidin-3-yl]sulfonylbenzothiazol-2-yl]carbamoyl]-5-pyrrol-1-yl-benzamide]
0.31	0	≥ 20000	CN1CCN(CCCS(=O)(=O)c2ccc3nc(NC(=O)NC(=O)c4cc(-n5cccn5)c(Cl)cc4Cl)sc3c2)CC1 [Example 241, 2,4-dichloro-N-(6-(3-(4-methylpiperazin-1-yl)propylsulfonyl)benzo[d]thiazol-2-ylcarbamoyl)-5-(1H-pyrazol-1-yl)benzamide]
33	0.647	> 25000	CN(C)C1CCN(c2ccc(Cl)c(C(=O)NC(=O)Nc3nc4ccc(S(C)(=O)=O)cc4s3)c2)C1 (centres unmarked) [Example 60, 2-Chloro-5-(3-(dimethylamino)pyrrolidin-1-yl)-N-(6-(methylsulfonyl)benzothiazol-2-ylcarbamoyl)benzamide]
53.6	27.7	9.58	CCN(CC)CCCCS(=O)(=O)c1ccc2nc(NC(=O)NC(=O)c3ccccc3Cl)sc2c1 [Example 211, 2-Chloro-N-[[6-(4-diethylaminobutylsulfonyl)benzothiazol-2-yl]carbamoyl]benzamide]
67.3	15.7	72.1	O=C(NC(=O)c1ccccc1Cl)Nc1nc2ccc(S(=O)(=O)NCCO)cc2s1 [Example 231, 2-chloro-N-[[6-(2-hydroxyethyl-sulfamoyl)-1,3-benzothiazol-2-yl]carbamoyl] benzamide]
36	45.1	400	CS(=O)(=O)c1ccc2nc(NC(=O)NC(=O)c3ccc(-n4cccn4)cc3Cl)sc2c1 [Example 116, 2-Chloro-N-[(6-methylsulfonylbenzothiazol-2-yl)carbamoyl]-4-pyrazol-1-yl-benzamide]
37.8	16.8	15.9	CS(=O)(=O)c1ccc2nc(NC(=O)NC(=O)c3ccc(N4CCCC4)cc3Cl)sc2c1 [Example 117, 2-Chloro-N-[(6-methylsulfonylbenzothiazol-2-yl)carbamoyl]-4-pyrrolidin-1-yl-benzamide]
0.7	0	≥ 20000	Cc1cc(C)n(-c2ccc(Cl)c(C(=O)NC(=O)Nc3nc4ccc(S(=O)(=O)CCCN5CCN(C)CC5)cc4s3)c2)n1 [Example 237, 2-chloro-5-(3,5-dimethyl-1H-pyrazol-1-yl)-N-(6-(3-(4-methylpiperazin-1-yl)propylsulfonyl)benzo[d]thiazol-2-ylcarbamoyl) benzamide]
